Entries after “also recorded” stand apart in the source; their conditions may differ.
Experiments:
[1] = tested on: myosin light chain-2 (MLC-2) phosphorylation; test: Thrombin-induced MLC-2 phosphorylation, western blot; type: cell-based, human; details: 1 or 10 μM, 24 hrs; thrombin 2 U, 30 min; FIG. 5B
Protocol: (§1) Antibodies for western blot analysis against total and phospho-MLC2 were obtained from Santa Cruz Biotechnology and Cell Signaling Technology, respectively. Antibodies for pROCK1, total ROCK1, and GAPDH were obtained from Abcam. Pitavastatin was obtained from Santa Cruz Biotechnology.
Human ASM cells were treated with pitavastatin (1 or 10 μM) for 24 hours, then treated with thrombin (2 U, 30 min). As depicted in FIG. 5B, pitavastatin (1 or 10 μM) inhibited thrombin-induced MLC2 phosphorylation.

primary ASM cells = test: Potentiation of isoproterenol relaxation of histamine-induced ASM contraction; type: cell-based, human; details: FIG. 17A
Protocol: Primary ASM cells from a non-asthmatic donor were serum-deprived for 2 days in a tissue culture flask, and then cultured to confluence for an additional 24 hrs in serum-free medium in 96-well traction force measurement plates (3 kPa stiffness). The pre-treatment contractile force was measured as described above. Cells were then treated with either vehicle (PEG400), control (serum-free medium) or Pitavastatin at concentrations of 10^−5 M, 10^−6 M, 10^−7 M, and 10^−8 M, for 24 hrs, and the baseline contractile force measured. ASM cells were then acutely treated with histamine (10 μM) for 30 minutes, and the histamine-induced contractile force was measured. The cells were then treated with isoproterenol (10^−6, 10^−7, 10^−8, 10^−9, and 10^−11 M) for 30 minutes, and the isoproterenol-relaxed ASM contractile force was measured. The percent “histamine contraction” was calculated as the ratio of isoproterenol-relaxed ASM contractile force to histamine-induced contractile force. […] FIG. 17B details the data boxed in FIG. 17A.

[2] = tested on: Rho kinase (ROCK-1) phosphorylation; test: Histamine-induced ROCK-1 phosphorylation, western blot; type: cell-based, human; details: 24 hrs; for inhibitory effect on ROCK-1 phosphorylation with mevalonate co-treatment: 1 μM with MA 200 μM
Protocol: as §1
Human ASM cells were treated with pitavastatin (1 μM) with or without mevalonate (MA, 200 μM) for 24 hours, then treated with histamine (10 μM) for 5 minutes.

[3] = tested on: human ASM cells, histamine-induced contraction; test: Contractile force screening, histamine-induced ASM contraction; type: cell-based
Protocol: Contractile Force Screening: Human ASM cells were grown to confluence in 96-well plates on custom NuSil™ 8100 elastic substrates (Avantor, Inc., Radnor, Pa.) (R. Rokhzan et al., Lab Invest (2019) 99(1):138-45). Fluorescent beads (diameter ˜400 nm) were embedded in the substrate surface to enable traction force calculations based on their displacements. To measure fractions, an inverted epi-fluorescence microscope (DMI 6000B, Leica Inc., Germany) equipped with a heated chamber (37° C.), a monochrome camera (Leica DFC365 FX), and a motorized stage was used. Spatial images were recorded of substrate-embedded fluorescent beads at 10× magnification. Based on the bead displacements (resolution ˜15 μm) relative to a cell-free model, together with knowledge of substrate stiffness and thickness, fractions were computed using the approach of Fourier Transform Traction Cytometry (B. Yeganeh et al., Pharmacol Ther (2014) 143(1):87-110), modified to the case of cell monolayers (E. J. Whalen et al., Cell (2007) 129(3):511-22). From each fraction map, the root-mean-squared traction (RMST) value and strain energy were calculated and reported as a measure of normal contraction in the monolayer. On a well-by-well basis, the ratio of the strain energy after vs. before treatment was computed, and all values of a given treatment group were normalized to the mean of each treatment group.
In complete media, 0.08 μM pitavastatin is sufficient to inhibit histamine-mediated ASM contraction (FIG. 4A).

[4] = tested on: bronchial airways of human PCLS; test: Histamine-induced airway constriction in human PCLS; details: pre-treated 24 hrs, compared to vehicle, FIG. 11C
Description: A non-transplantable non-asthmatic human donor lung was obtained through the Gift of Hope/Regional Organ Bank of Illinois, and sliced as per published protocols. Briefly, the lung lobe was filled with 1.5% low melting temperature agarose (Type IX; Sigma, St. Louis, Mo.) in Hanks balanced salt solution (pH=7.4; Invitrogen, Carlsbad, Calif.), and sliced using a VT1200S vibrating blade microtome (Leica Microsystems, Bannockburn, Ill.) to create 250 μm thick slices. Slices were cryopreserved till the day of the experiment.
Slices were treated with pitavastatin (2 μM) for 24 hrs, before challenge with histamine (1 μM). Airway constriction was measured as luminal area changes in response to increasing doses of histamine. In both sets of PCLS samples, airway lumen area was quantified from bright field images using the Fiji image analysis software.

mouse PCLS = test: Viability of mouse PCLS (lung tissue toxicity); details: FIG. 10F
[5] = tested on: primary human airway smooth muscle (ASM) cells; test: Contractile force screening (CFS), basal ASM cell contraction (strain energy); type: cell-based; details: donors D1-D6, FIG. 11A
[6] = tested on: precision-cut human lung slices; test: Histamine-induced bronchoconstriction in precision-cut human lung slices, pitavastatin and isoproterenol; details: 5 μM, 24 hours
Protocol: The experiment was performed under serum-deprived media conditions, n=3-7 airways per group. Changes in lumen narrowing were reported as percentage changes (±SEM) of the pre-treatment state (see FIG. 13). The absolute value of lumen airway area was not statistically different between the pitavastatin and control groups at the pre-treatment state.

eotaxin-3 = test: IL13/TNFα-induced eotaxin-3 peptide secretion by ASM cells; type: cell-based, human; details: 2 mM pitavastatin, 72 hrs; cytokines 18 hrs at 10 ng/mL; 10% FBS; FIG. 14A
Protocol: Non-asthmatic primary human ASM cells were grown to confluence and were either untreated or pre-treated with 2 mM pitavastatin and GGPP (10 mM) for a total of 72 hours. Total cytokine stimulation was for 18 hours at 10 ng/mL. […] All experiments were conducted under serum-containing media conditions (10% FBS).

ROCK-1 = test: Total ROCK-1 expression, western blot; type: cell-based, human; details: 1 μM, 24 hrs, FIG. 15C
Protocol: as §1
Non-asthmatic primary human ASM cells were treated with either vehicle or pitavastatin (1 μM) for 24 hours. Cells were then immuno-stained for F-actin expression. […] Cell lysates were analyzed by western blot for total ROCK-1, total ROCK-2, total MLC-2, and phosphorylated MLC-2. As shown in FIGS. 15C and 15D, pitavastatin reduced the total expression of ROCK-1, ROCK-2, and MLC-2 (total and phosphorylated).

## O=C(O)C[C@H](O)C[C@H](O)/C=C/c1c(C2CC2)nc2ccccc2c1-c1ccc(F)cc1 [pitavastatin]
[1]
  thrombin-induced MLC2 phosphorylation: inhibits; also recorded: reduced MLC-2 phosphorylation
Primary ASM cells; 10^−7 M, 10^−6 M and 10^−5 M pitavastatin 24 hrs, 10^−9 M and 10^−8 M isoproterenol
  effect of isoproterenol on histamine contraction compared to vehicle: potentiated
Primary ASM cells; all concentrations of statin, 10^−11 M isoproterenol
  degree of relaxation compared to vehicle: not substantially different from vehicle
[2]
  inhibitory effect on ROCK-1 phosphorylation with mevalonate co-treatment: abrogated
[2]; listed as Pit
  inhibitory effect on ROCK-1 phosphorylation with mevalonate co-treatment: abrogates
[2]; 1 μM, histamine 10 μM, 5 min, FIG. 5A
  histamine-induced ROCK1 phosphorylation: significantly reduced; also recorded: inhibits
[3]
  potency relative to SA in prevention of histamine-induced ASM contraction: at least 5 times
[3]; 0.4 μM statin, 24 hrs
  histamine-induced ASM contraction: renders histamine ineffective at inducing ASM contraction
[3]; 0.4 μM statin, 24 hrs, listed as Pit
  histamine-induced ASM contraction: inhibits histamine-induced ASM contraction
[3]; complete media, FIG. 4A
  concentration sufficient to inhibit histamine-mediated ASM contraction: 0.08 µM
[3]; pitavastatin, simvastatin, atorvastatin
  potency ranking on histamine-induced ASM contraction: most potent of the three drugs
[3]; pre-treatment 24 hrs, histamine 10 μM, FIG. 4A/4B
  histamine-induced ASM contraction: significantly reduced histamine-induced ASM contraction; also recorded: potently and significantly inhibited
[3]; serum starved media
  concentration providing a similar extent of protection from histamine-induced contraction: 0.4 µM
[4]
  1 μM histamine-induced airway constriction (lumen narrowing): significantly inhibited
[4]; listed as Pit
  1 μM histamine-induced airway constriction (lumen narrowing): significantly reduced
Mouse PCLS
  lung tissue toxicity: did not demonstrate any
[5]
  ASM contraction in asthmatic and non-asthmatic donor cells: dose-dependently inhibited ASM contraction; also recorded: inhibited ASM contraction dose-dependently
[6]
  interference with the β2-agonist effect of isoproterenol: did not interfere; also recorded: does not interfere
[6]; histamine 10 μM 15 min, serum-deprived, FIG. 13
  histamine (Hist)-induced bronchoconstriction: reduced
eotaxin-3
  IL13/TNFα-induced eotaxin-3 peptide secretion: inhibited
ROCK-1
  total (basal) expression of ROCK-1: reduced
